# Assay results published in the METLIN SMRT retention time set (Domingo-Almenara et al. 2019).
# Assay: gradient 5% acetonitrile 3 min, to 50% in 2 min, to 85% in 15 min, held 3 min, 100 µL/min
# Settings: column: Zorbax Extend-C18 2.1 x 50 mm; eluents: water / acetonitrile, 0.1% formic acid
# How it was run: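 Retention times of pure standards were taken from adduct peaks that were selected by computer and manually inspected. Over 3 months, mixtures of ~100 molecules were run by HPLC–quadrupole time-of-flight mass spectrometry in positive and negative ionization mode. The Zorbax Extend-C18 column (2.1 × 50 mm, 1.8 μm) ran at 100 μL/min in water and acetonitrile, each containing 0.1% formic acid, with 40 μL dead volume and 900 μL dwell volume.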
row,SMILES,RP-LC retention time [s]
1,CCc1nc(-n2cccc2)sc1C(=O)Nc1cccc(C)c1,1150
2,CCCCC(=O)NC1(C(F)(F)F)C(=O)N(CCc2ccccc2)C(C)=C1C(C)=O (stereo not given),980
3,CCn1cc(S(=O)(=O)N2CCC(Cc3nc(-c4cccnc4)n[nH]3)C2)cn1 (stereo not given),592
4,COC(=O)C1=CN(C2CC2)c2cc(N3CCCCCC3)c(F)cc2S1(=O)=O,980
5,COc1ccc(N2CCN(CCCNC(=O)C3CCCN(c4nccc(C)n4)C3)CC2)cc1 (stereo not given),603
6,CC(=O)Nc1ccc(Nc2nc3ccccc3nc2NS(=O)(=O)c2cccs2)cc1,794
7,Cc1ccccc1C(=O)N1CCN(S(=O)(=O)c2cc3c4c(c2)CCC(=O)N4CCC3)CC1,785
8,COc1ccc(-c2nc3cnccn3c2Nc2c(C)cccc2C)cc1OC,784
9,O=C(c1ccc(F)c(Cl)c1)N1CCN(c2cc(-c3cccs3)[nH]n2)CC1,800
10,COc1nc2ccccc2nc1N1CCCC(C(=O)NC2CCCCCC2)C1 (stereo not given),1090
11,CC(=O)N1CCc2nn(CC(=O)N3CCN(c4ccccc4F)CC3)c(=O)cc2C1,652
12,Cn1cc(C2=CCN(C(=O)NC3CCCC3)CC2)c2cccnc21,754
13,O=C(c1nnc(-c2ccc(S(=O)(=O)N3CCCC3)cc2)o1)N1CCCC1,764
14,Cc1cc(C)n2nc(SCC(=O)NC3CCC(C)CC3)nc2n1 (stereo not given),752
15,CCc1noc([C@@H]2CC(F)(F)CN2C(=O)CCn2ccnc2)n1,590
16,COc1ccc(-c2noc(-c3cn(C)c4ccc(C)cc4c3=O)n2)cc1OC,796
17,O=C(c1cncc(Br)c1)N1CCN(c2ccc(-c3cccs3)nn2)CC1,651
18,COC(=O)c1c(NCc2ccc(SC)cc2)c2cccc(Cl)c2[nH]c1=O,853
19,O=C(NC1CC1)[C@@H]1C[C@H](Oc2ccccc2)CN1C(=O)CC1CCCC1,818
20,Cc1cccc(N(C)C(=O)CN2C(=O)NC3(CCCCC3)C2=O)c1,784
21,CCc1ccc(S(=O)(=O)c2cnc(N3CCc4ccccc4C3)nc2N)cc1,1170
22,COc1ccccc1-c1noc(C2CCCN2C(=O)c2ccccn2)n1 (stereo not given),725
23,CCC(=O)N1CCc2cc(N3CC(C(=O)NCc4cccc(Cl)c4)CC3=O)ccc21 (stereo not given),776

row,SMILES,RP-LC retention time [s]
1,COc1ccc(NC(=O)c2c(OC)cc(=O)n3c2CCCC3)c(OC)c1,877
2,CC(C)(C)C(=O)N1CCC(OC2CCN(Cc3ccccc3)CC2)CC1,638
3,Cc1csc(-c2ccc(CNC(=O)c3ccnn3C)cc2)n1,772
4,Cc1nnc(-c2ccc3ccn(CC(=O)Nc4cccc(Cl)c4)c3c2)o1,847
5,Cc1nc(CNC(=O)c2ccc(-c3noc(C4CC4)n3)cc2)no1,717
6,Cn1nc(-c2nc(-c3ccccc3F)no2)c2c1CCN(C(=O)C1CCCO1)C2 (stereo not given),770
7,COc1cc(NC(=O)Nc2nccn(-c3cccc(Cl)c3)c2=O)cc(OC)c1,978
8,CCc1nnc(-c2ccc(S(=O)(=O)N3CCCC(C)C3)o2)o1 (stereo not given),906
9,O=C(NCc1ccco1)C1CCN(c2ncccc2-c2nc(-c3ccc(Cl)cc3)no2)CC1,1090
10,CC(=O)Nc1ccc(CCc2nc3ccc(C(=O)NC4CCCCCC4)cc3[nH]2)cc1,650
11,COc1ccc(NC(=O)Cn2nc3cc(C)nc(-c4ccccc4)n3c2=O)cc1OC,736
12,O=C(Cn1cccc1-c1nnc(-c2ccccc2)o1)NCc1ccccc1,882
13,COc1ccc(C)cc1NC(=O)C1CCCN1S(=O)(=O)c1cc2c(cc1C)NC(=O)C(C)O2 (stereo not given),880
14,CCn1cc(C2=CCN(S(=O)(=O)c3cccc(F)c3)CC2)c2cccnc21,1020
15,FC(F)(F)c1cccc(-c2ccc(CNCC3CCCO3)o2)c1 (stereo not given),703
16,Cc1sc(-c2noc(C3CCC3)n2)cc1S(=O)(=O)N1CCC(C(=O)N2CCOCC2)CC1,948
17,CCn1nc(CNC(=O)Cc2cccc(F)c2)c2ccccc21,764
18,Cn1c(CN2CCN(C(=O)c3cccs3)CC2)nc2cc(C(=O)N3CCCC3)ccc21,597
19,COc1cccc(CC(=O)Nc2nnc(SCc3nnc(-c4ccccc4C)o3)s2)c1,922
20,Cc1ccc(C)c(N2CCN(c3ccnc(SCC(=O)Nc4ccccc4C)n3)CC2)c1,1010
21,CCCCC(=O)NC1=C(C(=O)OC)SCC1,905
22,Cc1noc(-c2ccc(OC3CN(C(=O)c4sccc4C)C3)cc2)n1,900
23,CCc1noc2nc(CCC(=O)NCCCN3CCCC(C)C3)nc(N3CCCCC3)c12 (stereo not given),673

row,SMILES,RP-LC retention time [s]
1,Cc1ccc(Nc2c(-c3ccc(Br)cc3)nc3cnccn23)cc1Cl,1180
2,Cc1ccc(NC(=O)Cn2nc(N3CCCC3)c3ccccc3c2=O)cc1C,1000
3,OCCN1CCN(CCCN2c3ccccc3C=Cc3ccccc32)CC1,692
4,CCN(CCCNC(=O)c1nnc(-c2ccc(S(=O)(=O)N3CCCC3)cc2)o1)Cc1ccccc1,661
5,COc1nccnc1NC1CCN(C(=O)Cc2ccsc2)CC1,921
6,Cc1oc(-c2cccc(Cl)c2)nc1CN1CCN(C(=O)NC2CCCC2)CC1,690
7,Cc1nc(Cn2cccc2C(=O)Nc2ccc(C)c(Cl)c2)no1,954
8,Cc1cc(C)cc(NC(=O)CN2C(=O)CSc3ccc(C(=O)N4CCCC4)cc32)c1,634
9,Cc1cc(C)n(-c2cc(Nc3ccc(F)cc3)ncn2)n1,1010
10,O=C(CSc1ncnc2c1cnn2-c1ccccc1)Nc1ccc(OC(F)(F)F)cc1,1160
11,CN(C)c1ccc(C(CNC(=O)C(=O)Nc2ccc(F)c(Cl)c2)N2CCCC2)cc1 (stereo not given),613
12,C=Cc1ccc(CN2N=C(C(=O)N3CCOCC3)S(=O)(=O)c3ccc(Cl)cc32)cc1,951
13,O=C(CN1CCCCC1c1nc(-c2cccs2)no1)NCc1cccs1 (stereo not given),996
14,Cc1cc(-c2nnc(SCC(N)=O)o2)c(C)o1,625
15,Cc1cc(NC(=O)CC2COc3ccccc3NC2=O)ccc1Br (stereo not given),791
16,O=C(NCC1CCN(C(=O)c2cc3ccccc3o2)CC1)c1cc(Cl)ccc1Cl,841
17,CC(C)N1CCCn2cc(S(=O)(=O)Nc3cccc(C(F)(F)F)c3)cc2C1=O,865
18,O=C(C1CCN(c2nc3ccc(-c4ccsc4)nc3s2)CC1)N1CCCCC1,911
19,COCc1cc2nn(CC(=O)Nc3ccccc3)c(=O)n2c(-c2ccccc2)n1,800
20,COc1cccc(CN2CCc3nc(N4CCN(c5ccccc5F)CC4)ncc3C2)c1,785
21,Cc1ccc2[nH]cc(CCN3CC(C(=O)NC4CCCCC4)CC3=O)c2c1 (stereo not given),819
22,CC1Cc2ccccc2N1C(=O)Cc1csc(NC(=O)c2ccc(=O)[nH]c2)n1 (stereo not given),647
23,COc1cccc(N2CCN(c3ccnc(SCC(=O)NCCC4=CCCCC4)n3)CC2)c1,862

row,SMILES,RP-LC retention time [s]
1,Cc1ncc2c(n1)C[C@@H]1CC[C@H]2N1C(=O)Nc1ccc(C)c(C)c1,707
2,COCc1noc([C@@H]2CN(C(=O)c3ccc(Cl)s3)C[C@H]2C(N)=O)n1,676
3,CC(C)S(=O)(=O)N1CCCC(Cn2cc(COc3ccc4c(c3)CCC4)nn2)C1 (stereo not given),595
4,Cc1cccc2nnc(N3CCN(C(=O)c4ccsc4)CC3)n12,614
5,CCC(C)NC(=O)c1cccc(C)c1 (stereo not given),847
6,Cc1noc(COC2CCCN(C(=O)NCc3ccccc3)C2)n1 (stereo not given),684
7,COc1ccc(NC(=O)N2CCN(Cc3nc4ccc(Cl)cc4o3)CC2)cc1,713
8,COc1ccccc1-n1nnc(C(=O)NCc2nc3ccccc3n2C)c1-c1ccccn1,574
9,Cc1nn(-c2nc(-c3ccccc3)cs2)c(C)c1CC(=O)Nc1cccc(C(F)(F)F)c1,1270
10,COc1ccc(OC)c(NC(=O)c2sc(-c3cn(C(C)C)c4ncccc34)nc2C)c1,1030
11,Cc1c(CNCCN(C)C)c(C(=O)O)c(C)n1Cc1ccccc1F,591
12,O=C(c1cccc([N+](=O)[O-])c1)N1CCN(C(c2ccccc2)c2ccccc2)CC1,757
13,COCC(=O)N1CCC([C@H]2[C@@H](OC)C(=O)N2C(C)C)CC1,602
14,O=C(c1cc2c(s1)CCC(C(=O)N1CCN(c3ccccn3)CC1)C2)N1CCCC1 (stereo not given),600
15,Cc1cc(N2CCN(C)CC2)nc2ccc(NC(=S)NCc3ccc(F)cc3)cc12,599
16,CCN(CC)C(=O)N1CC(Oc2ccc(-c3nc(C)no3)cc2)C1,824
17,CC(C)NC(=O)C1CCN(C(=O)c2ncn3c2COC(c2ccc(F)cc2)C3)CC1 (stereo not given),679
18,O=C(CC1CCOC2(CCN(Cc3ccco3)CC2)C1)NC1CC1 (stereo not given),573
19,O=C(NCc1ccccc1)c1ccc(NC(=O)C2CCC2)cc1N1CCOCC1,842
20,Cc1cc([N+](=O)[O-])ccc1NC(=O)C1COc2ccccc2O1 (stereo not given),920
21,COc1cccc(-c2noc(C3CCCN3C(=O)Nc3ccc(Br)cc3)n2)c1 (stereo not given),964
